{
  "source": "ChEMBL document CHEMBL5543126",
  "about": "“Combinatorial Ubiquitination REal-time PROteolysis (CURE-PROs): A Modular Platform for Generating Reversible, Self-Assembling Bifunctional Targeted Degraders” (J Med Chem, 2024)",
  "assay_type_in_all_cases": "cell-based",
  "key": {"[1]": {"molecular_target": "T1, von Hippel-Lindau disease tumor suppressor/Bromodomain-containing protein 4 (Homo sapiens, UniProt O60885+P40337)", "T1 sequence (P40337 whole entry, looked up, other chains not shown)": "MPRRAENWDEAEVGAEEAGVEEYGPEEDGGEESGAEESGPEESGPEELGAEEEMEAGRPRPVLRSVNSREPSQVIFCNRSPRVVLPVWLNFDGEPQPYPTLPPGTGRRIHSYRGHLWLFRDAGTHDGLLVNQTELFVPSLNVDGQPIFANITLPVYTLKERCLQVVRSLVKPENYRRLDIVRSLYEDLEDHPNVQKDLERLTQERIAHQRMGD", "test": "(§1) PROTAC activity at BRD4/VHL in human MCF7 cells assessed as induction of BRD4 degradation by measuring residual activity at 10 uM incubated for 24 hrs in presence of 3 uM VHL based ligand (2S,4R)-1-((S)-2-(2,3-dihydroxybenzamido)-3,3-dimethylbutanoyl)-4-hydroxy-N-(4-(4-methylthiazol-5-yl)benzyl)pyrrolidine-2-carboxamide by Western blot based Combinatorial Ubiquitination Real-time PROteolysis analysis"}, "[2]": {"molecular_target": "T1, von Hippel-Lindau disease tumor suppressor/Bromodomain-containing protein 4", "test": "as §1, with “of 1” for “of 3”"}, "[3]": {"molecular_target": "T1, von Hippel-Lindau disease tumor suppressor/Bromodomain-containing protein 4", "test": "as §1, with “30 nM” for “10 uM”, “300 nM” for “3 uM”"}, "[4]": {"molecular_target": "T1, von Hippel-Lindau disease tumor suppressor/Bromodomain-containing protein 4", "test": "as §1, with “30 nM” for “10 uM”, “100 nM” for “3 uM”"}, "[5]": {"molecular_target": "T1, von Hippel-Lindau disease tumor suppressor/Bromodomain-containing protein 4", "test": "(§2) PROTAC activity at VHL/BRD4 in HEK293 cells assessed as induction of BRD4 degradation by measuring degradation rate at 3 uM measured every 15 mins for 24 hrs in presence of VHL based ligand (2S,4R)-1-((S)-2-(2,3-dihydroxybenzamido)-3,3-dimethylbutanoyl)-4-hydroxy-N-(4-(4-methylthiazol-5-yl)benzyl)pyrrolidine-2-carboxamide by HiBiT based Combinatorial Ubiquitination Real-time PROteolysis analysis"}, "[6]": {"molecular_target": "T1, von Hippel-Lindau disease tumor suppressor/Bromodomain-containing protein 4", "test": "as §1, with “1” for “10”"}, "[7]": {"molecular_target": "T1, von Hippel-Lindau disease tumor suppressor/Bromodomain-containing protein 4", "test": "as §1, with “30 nM” for “10 uM”, “of” for “of 3 uM”"}, "[8]": {"molecular_target": "T1, von Hippel-Lindau disease tumor suppressor/Bromodomain-containing protein 4", "test": "(§3) PROTAC activity at BRD4/VHL in human MCF7 cells assessed as induction of BRD4 degradation by measuring residual activity at 1 uM incubated for 24 hrs in presence of 100 nM BRD4 based ligand ((4S)-6-(4-chlorophenyl)-4-(2-(ethylamino)-2-oxoethyl)-1-methyl4Hbenzo[f][1,2,4]triazolo [4,3-a][1,4]diazepin-8-yl)boronic acid by Western blot based Combinatorial Ubiquitination Real-time PROteolysis analysis"}, "[9]": {"molecular_target": "T1, von Hippel-Lindau disease tumor suppressor/Bromodomain-containing protein 4", "test": "as §1, with “at 3” for “at 10”, “of 10” for “of 3”"}, "[10]": {"molecular_target": "T1, von Hippel-Lindau disease tumor suppressor/Bromodomain-containing protein 4", "test": "as §2, with “at 0.3” for “at 3”"}, "[11]": {"molecular_target": "T1, von Hippel-Lindau disease tumor suppressor/Bromodomain-containing protein 4", "test": "as §1, with “3” for “10”, “of” for “of 3 uM”"}, "[12]": {"molecular_target": "T1, von Hippel-Lindau disease tumor suppressor/Bromodomain-containing protein 4", "test": "as §2, with “measuring maximal level of” for “measuring”, “degradation” for “degradation rate”, “at 10” for “at 3”"}, "[13]": {"molecular_target": "T1, von Hippel-Lindau disease tumor suppressor/Bromodomain-containing protein 4", "test": "as §2, with “measuring Tmax” for “measuring degradation rate”, “at 10” for “at 3”"}, "[14]": {"molecular_target": "T1, von Hippel-Lindau disease tumor suppressor/Bromodomain-containing protein 4", "test": "as §2, with “measuring maximal level of” for “measuring”, “degradation” for “degradation rate”, “at 1” for “at 3”"}, "[15]": {"molecular_target": "T1, von Hippel-Lindau disease tumor suppressor/Bromodomain-containing protein 4", "test": "as §1, with “reduction in” for “induction of”, “level” for “degradation by measuring residual activity at 10 uM”, “[…]” for “3 uM VHL”"}, "[16]": {"molecular_target": "T1, von Hippel-Lindau disease tumor suppressor/Bromodomain-containing protein 4", "test": "as §2, with “measuring maximal level of” for “measuring”, “degradation” for “degradation rate”"}, "[17]": {"molecular_target": "T1, von Hippel-Lindau disease tumor suppressor/Bromodomain-containing protein 4", "test": "as §3, with “at 10” for “at 1”, “of 1 uM” for “of 100 nM”"}, "[18]": {"molecular_target": "T1, von Hippel-Lindau disease tumor suppressor/Bromodomain-containing protein 4", "test": "(§4) PROTAC activity at VHL/BRD4 in HEK293 cells assessed as induction of BRD4 degradation by measuring Tmax at 10 uM measured every 15 mins for 24 hrs in presence of BRD4 based ligand ((4S)-6-(4-chlorophenyl)-4-(2-(ethylamino)-2-oxoethyl)-1-methyl4Hbenzo[f][1,2,4]triazolo [4,3-a][1,4]diazepin-8-yl)boronic acid by HiBiT based Combinatorial Ubiquitination Real-time PROteolysis analysis"}, "[19]": {"molecular_target": "T1, von Hippel-Lindau disease tumor suppressor/Bromodomain-containing protein 4", "test": "as §3, with “30 nM” for “1 uM”, “1 uM” for “100 nM”"}, "[20]": {"molecular_target": "T1, von Hippel-Lindau disease tumor suppressor/Bromodomain-containing protein 4", "test": "as §3, with “300 nM” for “1 uM”, “1 uM” for “100 nM”"}, "[21]": {"molecular_target": "T1, von Hippel-Lindau disease tumor suppressor/Bromodomain-containing protein 4", "test": "as §3, with “30 nM” for “1 uM”, “10 uM” for “100 nM”"}, "[22]": {"molecular_target": "T1, von Hippel-Lindau disease tumor suppressor/Bromodomain-containing protein 4", "test": "as §3, with “300 nM” for “1 uM”, “300” for “100”"}, "[23]": {"molecular_target": "T1, von Hippel-Lindau disease tumor suppressor/Bromodomain-containing protein 4", "test": "as §3, with “3 uM” for “100 nM”"}, "[24]": {"molecular_target": "T1, von Hippel-Lindau disease tumor suppressor/Bromodomain-containing protein 4", "test": "as §4, with “maximal level of degradation” for “Tmax”"}},
  "note": "The source made the active and inactive calls. The calls are words filed in the database; no cut-off is given here.",
  "data": [
    {"smiles": "CCNC(=O)C[C@@H]1N=C(c2ccc(Cl)cc2)c2cc(B(O)O)ccc2-n2c(C)nnc21", "values": [
      {"measurement": "Activity", "setting": "[1]", "value": 7, "unit": "%"},
      {"measurement": "Activity", "setting": "[2]", "value": 21, "unit": "%"},
      {"measurement": "Activity", "setting": "[3]", "value": 104, "unit": "%"},
      {"measurement": "Activity", "setting": "[4]", "value": 89, "unit": "%"},
      {"measurement": "Activity", "setting": "[5]", "value": 0.908, "unit": "h⁻¹"},
      {"measurement": "Activity", "setting": "[6]", "value": 22, "unit": "%"},
      {"measurement": "Activity", "setting": "[7]", "value": 91, "unit": "%"},
      {"measurement": "Activity", "setting": "[8]", "value": 56, "unit": "%"},
      {"measurement": "Activity", "setting": "[9]", "value": 16, "unit": "%"},
      {"measurement": "Activity", "setting": "[10]", "value": 0.144, "unit": "h⁻¹"},
      {"measurement": "Activity", "setting": "[11]", "value": 73, "unit": "%"},
      {"measurement": "Emax", "setting": "[12]", "value": 96, "unit": "%"},
      {"measurement": "Tmax", "setting": "[13]", "value": 22.2, "unit": "h"},
      {"measurement": "Emax", "setting": "[14]", "value": 80, "unit": "%"},
      {"measurement": "Activity", "setting": "[15]", "value": "Active"},
      {"measurement": "DC50", "setting": "[15]", "value": 358, "unit": "nM"},
      {"measurement": "Emax", "setting": "[16]", "value": 93, "unit": "%"}
    ]},
    {"smiles": "Cc1ncsc1-c1ccc(CNC(=O)[C@@H]2C[C@@H](O)CN2C(=O)[C@@H](NC(=O)c2cccc(O)c2O)C(C)(C)C)cc1", "values": [
      {"measurement": "Activity", "setting": "[17]", "value": 21, "unit": "%"},
      {"measurement": "Tmax", "setting": "[18]", "value": 22.2, "unit": "h"},
      {"measurement": "Activity", "setting": "[19]", "value": 96, "unit": "%"},
      {"measurement": "Activity", "setting": "[20]", "value": 38, "unit": "%"},
      {"measurement": "Activity", "setting": "[21]", "value": 76, "unit": "%"},
      {"measurement": "Activity", "setting": "[22]", "value": 68, "unit": "%"},
      {"measurement": "Activity", "setting": "[23]", "value": 22, "unit": "%"},
      {"measurement": "Emax", "setting": "[24]", "value": 96, "unit": "%"}
    ]}
  ]
}
